Assay [1] relates to latent HIV in J-Lat-A10.6 cells. Description: Activation of latent HIV in J-Lat-A10.6 cells, GFP fluorescence / flow cytometry. It counts as cell-based, human. As to conditions: 48 h. The protocol: (§1) The HIV latent cell model of the present invention comprises: a human T cell 10.6 clone strain carrying a green fluorescent protein gene (J-Lat-A10.6), which is provided by the National Institute of Health Research AIDS Reference Reagent Planning Department, established by Dr. Eric Verdin of the University of California.
(§2) The cells are small and the spherical cells are cultured in suspension. […]
(§3) J-Lat-A10.6 or C11 cells were seeded in 96-well plates at 2×10E4 cells per well, and 100 μl of 1640 medium (Gibco) containing 10% FBS (Gibco) was added to each well. After the cells were treated with the compounds in Examples 1-7 for 48 h, the green fluorescence expression of the cells was observed under a fluorescence microscope, the cells were collected for flow cytometry detection, and the proportion of fluorescent cells was analyzed.
(§4) J-Lat-A10.6 or C11 cells were seeded in 96-well plates at 2×10E4 cells per well, and 100 μl of 1640 medium (Gibco) containing 10% FBS (Gibco) was added to each well. After treatment with different concentrations of compounds (such as the compounds in Examples 1-7) and Prostratin for 48 h, the cells were collected for flow cytometry detection and the proportion of fluorescent cells was analyzed.
(Flow cytometry measures light scatter and fluorescence of single cells or particles in a stream.)

The test system of another assay is latent HIV in C11 cells. Description: Activation of latent HIV in C11 cells, GFP fluorescence / flow cytometry. It counts as cell-based. To be noted: for EC50: read-out: EC50 of activation of latent HIV-1. The protocol: The cells are small and the spherical cells are cultured in suspension. Human T cell Jurkat […] cells are transfected by the retroviral vector carrying the green fluorescent protein gene HIV-R7/E-/GFP and sorted (Jordan A, Bisgrove D, Verdin E. HIV reproducibly establishes a latent infection after acute infection EMBO J 22:1868-1877, 2003); another established HIV latent screening model C11 clone is obtained by the twice of the sorting and activation on HIV lentivirus-infected T cells. (Chinese patent: 200810038851. X).
as §3, §4

Assay [2] has as its system latent HIV in J-Lat-A10.6 or C11 cells. Description: Activation of HIV expression in latent cells, flow cytometry of green fluorescent cells (cell line not given). It counts as cell-based, human. To be noted: treated 48 h. The protocol: as §1, §2, §3, §4
The subject of assay [3] is resting CD4+ T cells isolated from the peripheral blood of AIDS patients. Description: Activation of latent HIV in peripheral blood resting CD4+ T cells of AIDS patients, real-time PCR of HIV-1 mRNA. It counts as cell-based, human. To be noted: 0.005 μM, 18 h; compared with control and 5 μg/ml PHA treated cells. The protocol: The resting CD4+ T cells isolated from the peripheral blood of 5 AIDS patients were treated with 5 μg/ml PHA (phytohemagglutinin) (positive control) and 0.005 μM compound 16A for 18 h, and then HIV-1 mRNA was extracted from resting CD4+ T cells and the medium, real-time PCR was used to detect the change of HIV-1 mRNA expression level in resting CD4+ T cells and medium, respectively.
On the technique in general: Real-time PCR tracks product formation cycle by cycle.

In assay [4] the test system is cells in the known HIV-infected latent reservoir. Description: Treatment of cells of the HIV-infected latent reservoir with compound, then antiretroviral drugs. It counts as cell-based. As to conditions: compound treatment followed by antiretroviral drugs, versus untreated viral latent reservoir.

In brackets after ≈: the same amount, converted by molar mass. Like-named read-outs stand apart in the source and are kept apart here.

The EC50 is the concentration at which the effect is half-maximal.

Consider `CC(=O)O[C@@]12C[C@@H](C)[C@@]3(O)[C@@H](C=C(CO)C[C@]4(O)C(=O)C(C)=C[C@@H]34)[C@@H]1C2(C)C` [Prostratin, reference compound], for which the EC50 came to 860 nM in assay [1] (Homo sapiens, flow cytometry, read-out: EC50 of activation of latent HIV-1) and 760 nM in the assay with latent HIV in C11 cells (Human immunodeficiency virus 1, 48 h).

Take `CCCCCCCCCCCC(=O)O[C@@]12C[C@@H](C)[C@]34C=C(C)[C@H](OC(=O)C(C)C(C)C)[C@@]3(O)[C@H](O)C(CO)=C[C@H](C4=O)[C@@H]1C2(C)C` (stereo partly drawn) [Example 1, 3-O-(2,3-dimethylbutanoyl)-13-O-dodecanoyl ingenol]: the EC50 in assay [2] (flow cytometry, J-Lat-A10.6 or C11 cells (not specified for Table 1)) was determined as 2.6 ng/mL (≈ 4.03 nM); in the assay on latent HIV in C11 cells (C11 cells, 48 h, flow cytometry), 3.53 nM. The same compound returned an activation rate in assay [2] (proportion of fluorescent cells, J-Lat-A10.6 or C11 cells (not specified), untreated control 2%) of 93%. The “proportion of green fluorescent positive cells” value in assay [1] (10 nM, background about 1-2%) is on record as 90%; with latent HIV in C11 cells (10 nM, 48 h, C11 cells), ~80%. Besides, the “intracellular activated HIV-mRNA” value in assay [3] is “significantly higher”. In assay [4], the “number of viral latent reservoir” value was “significantly lower”.

The values are drawn from US10959974B2, “Ingenol compounds and use thereof in anti-HIV latency treatment” (priority 2015, dated 2021).
